Measurements reported in patent US6727244B2, “Mammalian metabolites of a tachykinin receptor antagonist” (Merck & Co., Inc., priority 2000, dated 2004).

Legend:
human NK1 receptor = target: T1, human NK1 receptor (Homo sapiens, UniProt P25103); test: human NK1 receptor binding assay (125I-substance P, COS or CHO cells)
T1 construct: expressed in transfected cells
Experimental: To express the cloned human neurokinin-1 receptor (NKIR) transiently in COS, the cDNA for the human NKIR was cloned into the expression vector pCDM9 which was derived from pCDM8 (INVITROGEN) by inserting the ampicillin resistance gene (nucleotide 1973 to 2964 from BLUESCRIPT SK+) into the Sac II site. Transfection of 20 ug of the plasmid DNA into 10 million COS cells was achieved by electroporation in 800 ul of transfection buffer (135 mM NaCl, 1.2 mM CaCl2, 1.2 mM MgCl2, 2.4 mM K2HPO4, 0.6 mM KH2PO4, 10 mM glucose, 10 mM HEPES pH 7.4) at 260 V and 950 uF using the IBI GENEZAPPER (IBI, New Haven, Conn.). The cells were incubated in 10% fetal calf serum, 2 mM glutamine, 100U/ml penicillin-streptomycin, and 90% DMEM media (GIBCO, Grand Island, N.Y.) in 5% CO2 at 37° C. for three days before the binding assay.
To establish a stable cell line expressing the cloned human NK1R, the cDNA was subcloned into the vector pRcCMV (INVITROGEN). Transfection of 20 ug of the plasmid DNA into CHO cells was achieved by electroporation in 800 ul of transfection buffer suplemented with 0.625 mg/ml Herring sperm DNA at 300 V and 950 uF using the IBI GENEZAPPER (IBI). The transfected cells were incubated in CHO media [10 % fetal calf serum, 100 U/ml pennicilin-streptomycin, 2 mM glutamine, 1/500 hypoxanthine-thymidine (ATCC), 90% IMDM media (JRH BIOSClENCES, Lenexa, Kans.), 0.7 mg/ml G418 (GIBCO)] in 5% CO2 at 37° C. until colonies were visible. Each colony was separated and propagated. The cell clone with the highest number of human NK1R was selected for subsequent applications such as drug screening.
The binding assay of human NK1R expressed in either COS or CHO cells is based on the use of ^125I-substance P (^125I-SP, from DU PONT, Boston, Mass.) as a radioactively labeled ligand which competes with unlabeled substance P or any other ligand for binding to the human NK1R. Monolayer cell cultures of COS or CHO were dissociated by the non-enzymatic solution (SPECIALTY MEDIA, Lavallette, N.J.) and resuspended in appropriate volume of the binding buffer (50 mM Tris pH 7.5, 5 mM MnCl2, 150 mM NaCl, 0.04 mg/ml bacitracin, 0.004 mg/ml leupeptin, 0.2 mg/ml BSA, 0.01 mM phosphoramidon) such that 200 ul of the cell suspension would give rise to about 10,000 cpm of specific ^125I-SP binding (approximately 50,000 to 200,000 cells). […] The bound radioactivity was separated from unbound radioactivity by GF/C filter (BRANDEL, Gaithersburg, Md.) which was pre-wetted with 0.1 % polyethylenimine. The filter was washed with 3 ml of wash buffer (50 mM Tris pH 7.5, 5 mM MnCl2, 150 mM NaCl) three times and its radioactivity was determined by gamma counter.

[1] = target: T2, recombinant human CYP isozymes (Homo sapiens, UniProt P08684); test: metabolism by microsomes containing recombinant human CYP isozymes; format: in vitro ADME; settings: parent to M-1 (N-dealkylation); M-1 to M-2 (oxidation); M-3 to M-4 (hydroxylation); M-2 to M-5 (conversion)
T2 construct: host or cells: Baculovirus-infected sf21 insect cells (microsomes)
T2 sequence (P08684 2-503 limits assumed): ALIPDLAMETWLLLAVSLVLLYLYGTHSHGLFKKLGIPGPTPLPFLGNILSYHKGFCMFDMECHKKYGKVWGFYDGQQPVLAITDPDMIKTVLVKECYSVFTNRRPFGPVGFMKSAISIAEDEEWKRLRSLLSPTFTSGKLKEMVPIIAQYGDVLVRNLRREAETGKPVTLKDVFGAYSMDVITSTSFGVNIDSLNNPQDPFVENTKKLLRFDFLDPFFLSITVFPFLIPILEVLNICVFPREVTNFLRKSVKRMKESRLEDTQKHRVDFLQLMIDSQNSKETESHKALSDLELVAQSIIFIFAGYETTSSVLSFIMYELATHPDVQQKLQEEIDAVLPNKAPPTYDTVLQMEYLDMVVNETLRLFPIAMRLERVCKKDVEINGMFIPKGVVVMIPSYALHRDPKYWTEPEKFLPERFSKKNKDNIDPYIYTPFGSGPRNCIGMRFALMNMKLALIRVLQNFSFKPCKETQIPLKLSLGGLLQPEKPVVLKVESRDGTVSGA
Experimental: Hepatocytes were harvested from male Sprague-Dawley rat livers or human livers and cultured on a matrigel support and treated with 0.1 μM dexamethasone or 50 μM rifampicin, respectively, for 48 hr prior to the addition of the test compounds. A 2.5 mM stock solution of [^14C]2-(R)-(1-(R)-(3,5-bis(trifluoromethyl)-phenyl)ethoxy)-3-(S)-(4-fluoro)phenyl-4-(3-(5-oxo-1H,4H-1,2,4-triazolo)methylmorpholine, [^14C]M-1 or [^14C]M-2 in DMSO was added to the plates such that the final concentration of test compound was 25 μM and DMSO was 1% (v/v). The cultures were incubated for 4, 6 or 24 hr for rat hepatocytes and 48 hr for human hepatocytes. The incubation mixtures (500 μL) contained 10 μM of test compound, 100 mM phosphate buffer pH 7.4, NADPH-regenerating system, microsomes containing expressed CYP isoforms (CYP1A2, CYP2A6, CYP2B6, CYP2C8, CYP2C9, CYP2C19, CYP2D6, CYP2E1 or CYP3A4) and cytochrome P-450 reductase. The reactions were initiated by adding NADP and proceeded at 37° C. for 15-45 min. Acetonitrile extracts from microsomal and hepatocyte incubates were dissolved in 50% aqueous methanol and fractionated by HPLC. The separation was accomplished on a Zorbax RX C8 analytical column (5 μm, 4.6×250 mm). The mobile phase consisted of solvent A (10 mM ammonium acetate in water) and solvent B (7.3 mM ammonium acetate in 92.7% acetonitrile and 7.3% methanol. The column was eluted by a linear gradient from 35 to 80% B over 40 min at a flow rate of 1 mL/min. Fractions of major metabolites were subjected to LC-MS/MS analysis. Further purification was done using isocratic conditions prior to NMR analysis.
The incubation mixtures (500 μL) contained 10 or 25 μM of test compounds, 100 mM phosphate buffer pH 7.4, NADPH-regenerating system (5 mM glucose-6-phosphate, 1 mM NADP and 0.7 I.U/mL glucose 6-phosphate dehydrogenase), 0.5 to 2 mg/mL liver microsomal protein prepared from rats and humans or microsomes from Baculovirus-infected sf21 cells containing 20 to 200 pmol expressed CYP isoforms (CYP1A2, CYP2A6, CYP2B6, CYP2C8, CYP2C9, CYP2C19, CYP2D6, CYP2E1 or CYP3A4) and cytochrome P450 reductase. Stock solutions of the substrates in methanol were made such that final concentration of methanol in the reaction mixture was 3%. The reactions were initiated by adding 50 μL of 10 mM NADP and proceeded at 37° C. for 15-45 min. After incubation, the reactions were terminated by the addition of four volumes of acetonitrile. The suspensions were mixed vigorously and centrifuged at 3000×g for 5 min. The supernatants were dried and redissolved in 50% methanol for HPLC analysis using method A described below.

[2] = oxidative metabolism in liver microsomes from humans; format: in vitro ADME; settings: human liver microsomes, 45 min
Experimental: (§1) All liver microsomal and cytosolic fractions were prepared using the following procedure. Thawed livers were homogenized with 2 volumes of 50 mM Tris-buffer (pH 7.5) containing 1.15% KCl. For microsomal and cytosolic preparations, the homogenate was centrifuged for 20 min at 9,000×g and the resulting supernatant was centrifuged for 60 min at 105,000×g. The resulting cytosolic fractions were re-centrifuged at 105,000×g for 60 min. Fractions of cytosol were aliquoted into small tubes and stored at −70° C. Subsequently, the microsomal pellets were washed with 10 mM EDTA containing 1.15% KCl and were centrifuged at 105,000×g for 60 min. Washed microsomes were resuspended in 10 mM potassium phosphate buffer (pH 7.4) containing 250 mM sucrose, aliquoted into small tubes, and stored at −70° C. Protein concentrations were determined by a modified Lowry assay (Smith et al., 1985). The specific cytochrome P450 content in each microsomal preparation was measured as described by Omura and Sato, J. Biol. Chem. 239, 2370-2378 (1964). […]
(§2) Method A was conducted on a Shimadzu HPLC system (Shimadzu Scientific Instruments Inc., Columbia Md.). The parent compounds and their metabolites were monitored directly using a radiometric detector (INUS Systems Inc. Tampa, Fla.) and Ultima-Flow M (Packard Instrument Co., Meridan Conn.) as scintillant at a flow rate of 3 mL/min. […]

[3] = oxidative metabolism in liver microsomes from rats; format: in vitro ADME; settings: rat liver microsomes, 45 min
Experimental: as §1, §2

T1 sequence (P25103 whole entry): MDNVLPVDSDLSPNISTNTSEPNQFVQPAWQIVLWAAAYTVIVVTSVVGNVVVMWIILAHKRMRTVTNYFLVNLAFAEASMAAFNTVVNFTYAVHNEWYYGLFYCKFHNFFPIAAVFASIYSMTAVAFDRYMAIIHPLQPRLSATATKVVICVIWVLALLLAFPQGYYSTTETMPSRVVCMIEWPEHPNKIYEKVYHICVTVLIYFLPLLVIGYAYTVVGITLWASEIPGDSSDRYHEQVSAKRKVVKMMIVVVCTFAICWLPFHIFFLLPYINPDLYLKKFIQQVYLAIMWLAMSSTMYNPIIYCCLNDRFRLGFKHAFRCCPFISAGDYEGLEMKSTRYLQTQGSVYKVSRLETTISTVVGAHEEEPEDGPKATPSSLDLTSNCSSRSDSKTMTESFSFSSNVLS

Row | IC50 (human NK1 receptor) | CYP isozyme primarily responsible for the metabolic step [1] | conversion in microsomes in the presence of an NADPH regenerating system [2] | conversion in microsomes in the presence of an NADPH regenerating system [3] | Compound
1 | ~10 nM | CYP3A4 |  |  | C[C@@H](O[C@H]1OCCN=C1c1ccc(F)cc1)c1cc(C(F)(F)F)cc(C(F)(F)F)c1 [Metabolite M-2, (2R)-2-[(1R)-1-[3,5-bis(trifluoromethyl)phenyl]ethoxy]-3-(4-fluorophenyl)-5,6-dihydro-2H-1,4-oxazine]
2 | 4 nM | CYP3A4 |  |  | C[C@@H](O[C@H]1OCC(=O)N[C@H]1c1ccc(F)cc1)c1cc(C(F)(F)F)cc(C(F)(F)F)c1 [Metabolite M-3, (5S,6R)-6-[(1R)-1-[3,5-bis(trifluoromethyl)phenyl]ethoxy]-5-(4-fluorophenyl)-3-morpholinone]
3 | 18 nM |  |  |  | C[C@@H](O[C@@H](OCC(=O)O)C(O)c1ccc(F)cc1)c1cc(C(F)(F)F)cc(C(F)(F)F)c1 (stereo partly drawn) [Metabolite M-6, [(1R)-1-[(1R)-1-[3,5-bis(trifluoromethyl)phenyl]ethoxy]-2-(4-fluorophenyl)-2-hydroxyethoxy]acetic acid]
4 |  | CYP3A4 | < 2% | < 2% | C[C@@H](O[C@H]1OCCN(Cc2n[nH]c(=O)[nH]2)[C@H]1c1ccc(F)cc1)c1cc(C(F)(F)F)cc(C(F)(F)F)c1 [Parent Compound, 5-[[(2R,3S)-2-[(1R)-1-[3,5-bis(trifluoromethyl)phenyl]ethoxy]-3-(4-fluorophenyl)4-morpholinyl]methyl]-1,2-dihydro-3H-1,2,4-triazol-3-one, reference compound]
